Data taken from ChEMBL document CHEMBL1134125, “Piperazinyl benzamidines: synthesis and affinity for the delta opioid receptor” (Bioorg Med Chem Lett, 2001).

Experiments:
[1] = target: Delta-type opioid receptor (Rattus norvegicus, UniProt P33533); assay: Inhibition of binding of [3H]-DPDPE to opioid receptor delta 1 from rat brain membrane.
Mu-type opioid receptor = Mu-type opioid receptor (Rattus norvegicus, UniProt P33535); assay: Inhibition of binding of [3H]DAMGO to opioid receptor mu 1 from rat brain membrane.
Mu-type opioid receptor, sequence (P33535 whole entry): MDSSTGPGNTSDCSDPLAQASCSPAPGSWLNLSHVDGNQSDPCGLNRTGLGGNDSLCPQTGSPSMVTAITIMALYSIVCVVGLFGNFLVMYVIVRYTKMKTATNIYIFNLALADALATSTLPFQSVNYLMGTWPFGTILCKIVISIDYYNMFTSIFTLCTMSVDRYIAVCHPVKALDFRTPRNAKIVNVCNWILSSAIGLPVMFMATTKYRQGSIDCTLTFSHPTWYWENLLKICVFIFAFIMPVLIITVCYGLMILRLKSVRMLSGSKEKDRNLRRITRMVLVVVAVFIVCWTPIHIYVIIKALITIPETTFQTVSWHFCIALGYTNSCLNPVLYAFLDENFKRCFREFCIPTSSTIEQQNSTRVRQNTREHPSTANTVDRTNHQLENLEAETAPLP

Delta-type opioid receptor, sequence (P33533 whole entry): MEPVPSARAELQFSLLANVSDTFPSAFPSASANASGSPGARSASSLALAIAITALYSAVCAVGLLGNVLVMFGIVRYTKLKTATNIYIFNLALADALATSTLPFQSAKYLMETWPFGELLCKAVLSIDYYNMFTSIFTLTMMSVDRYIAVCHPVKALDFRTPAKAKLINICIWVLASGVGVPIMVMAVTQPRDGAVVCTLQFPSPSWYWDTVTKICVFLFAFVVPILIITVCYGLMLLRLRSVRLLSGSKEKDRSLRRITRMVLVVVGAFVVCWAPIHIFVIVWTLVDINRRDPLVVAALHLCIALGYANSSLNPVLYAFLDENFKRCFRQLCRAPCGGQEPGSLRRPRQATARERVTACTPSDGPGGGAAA

`C=CCN1CCN(/C(=N\c2cccc(Cl)c2)c2ccc(C(=O)N(CC)CC)cc2)CC1` was tested, and the Ki [1] was 157 nM and the Ki (Mu-type opioid receptor) was > 10000 nM.
For `CCN(CC)C(=O)c1ccc(/C(=N/c2ccccc2C(F)(F)F)N2CCN(CCOC)CC2)cc1`, the Ki [1] was 22.9 nM and the Ki (Mu-type opioid receptor) was 2960 nM.
With `CCN(CC)C(=O)c1ccc(/C(=N/c2ccccc2Cl)N2CCN(CCOC)CC2)cc1` the Ki [1] was 53.5 nM and the Ki (Mu-type opioid receptor) was > 10000 nM.
With `CCN1CCN(/C(=N\c2ccccc2Cl)c2ccc(C(=O)N(CC)CC)cc2)CC1` the Ki [1] was 91.1 nM and the Ki (Mu-type opioid receptor) was > 1000 nM.
With `CCN1CCN(/C(=N\c2ccccc2Cl)c2ccc(C(=O)OC)cc2)CC1` the Ki [1] was 222 nM and the Ki (Mu-type opioid receptor) was > 1000 nM.
`CCN1CCN(/C(=N\c2cccc(Br)c2)c2ccc(C(=O)N(CC)CC)cc2)CC1` was tested, and the Ki [1] was 57.6 nM and the Ki (Mu-type opioid receptor) was > 10000 nM.
`CCN1CCN(/C(=N\c2cc(Cl)cc(Cl)c2)c2ccc(C(=O)N(CC)CC)cc2)CC1` was tested, and the Ki [1] was 277 nM and the Ki (Mu-type opioid receptor) was > 1000 nM.
Work on `CCCN(CCC)C(=O)c1ccc(/C(=N/c2ccccc2Cl)N2CCN(CC)CC2)cc1` yielded a Ki [1] of 292 nM and a Ki (Mu-type opioid receptor) of 3930 nM.
With `CCCN(CCC)C(=O)c1ccc(/C(=N/c2ccccc2OC)N2CCN(CC)CC2)cc1` the Ki [1] was 1020 nM and the Ki (Mu-type opioid receptor) was 3910 nM.
`CCN1CCN(/C(=N\c2cccc(F)c2)c2ccc(C(=O)N(CC)CC)cc2)CC1` was tested, and the Ki [1] was 58.5 nM and the Ki (Mu-type opioid receptor) was > 10000 nM.
For `CCN(CC)C(=O)c1ccc(/C(=N/c2ccccc2C(F)(F)F)N2CCN(CCc3ccccc3)CC2)cc1`, the Ki [1] was 545 nM and the Ki (Mu-type opioid receptor) was 1000 nM.
With `CCN1CCN(/C(=N\c2cccc(Cl)c2)c2ccc(C(=O)N(CC)CC)cc2)CC1` the Ki [1] was 63 nM and the Ki (Mu-type opioid receptor) was > 1000 nM.
`CCN(CC)C(=O)c1ccc(/C(=N/c2ccccc2)N2CCCN(CCc3ccccc3)CC2)cc1` was tested, and the Ki [1] was 543 nM and the Ki (Mu-type opioid receptor) was 396 nM.
`C=CCN1C[C@H](C)N(/C(=N\c2ccccc2)c2ccc(C(=O)OC)cc2)C[C@H]1C` gave a Ki [1] of 405 nM.
Work on `CCN1CCN(/C(=N\c2ccccc2)c2ccc(C(=O)N(CC)CC)cc2)CC1` yielded a Ki [1] of 16 nM and a Ki (Mu-type opioid receptor) of 1000 nM.
`CCN(CC)C(=O)c1ccc(/C(=N/c2ccccc2C(F)(F)F)N2CCN(Cc3ccccc3)CC2)cc1` gave a Ki [1] of 1.22 nM and a Ki (Mu-type opioid receptor) of 1200 nM.
For `COC(=O)c1ccc(/C(=N/c2ccccc2Cl)N2CCCN(CCc3ccccc3)CC2)cc1`, the Ki [1] was 101 nM and the Ki (Mu-type opioid receptor) was 197 nM.
`C=CCN1CCN(/C(=N\c2ccccc2Cl)c2ccc(C(=O)N(CC)CC)cc2)CC1` showed a Ki [1] of 20.5 nM and a Ki (Mu-type opioid receptor) of 7600 nM.
`CCN1CCN(/C(=N\c2ccccc2F)c2ccc(C(=O)N(CC)CC)cc2)CC1` was tested, and the Ki [1] was 118 nM and the Ki (Mu-type opioid receptor) was > 1000 nM.
In the case of `CCN(CC)C(=O)c1ccc(/C(=N/c2ccccc2)N2CCN(Cc3ccccc3)CC2)cc1`, the Ki [1] is reported as 212 nM and the Ki (Mu-type opioid receptor) is reported as > 10000 nM.
For `CCN(CC)C(=O)c1ccc(/C(=N/c2ccc(Cl)cc2)N2CCN(Cc3ccccc3)CC2)cc1`, the Ki [1] was 142 nM and the Ki (Mu-type opioid receptor) was > 10000 nM.
For `CCN(CC)C(=O)c1ccc(/C(=N/c2ccccc2Cl)N2CCN(Cc3ccccc3)CC2)cc1`, the Ki [1] was 11.8 nM and the Ki (Mu-type opioid receptor) was > 10000 nM.
With `CCN(CC)C(=O)c1ccc(/C(=N/c2ccccc2Cl)N2CCN(CCc3cccs3)CC2)cc1` the Ki [1] was 95.3 nM and the Ki (Mu-type opioid receptor) was > 10000 nM.
For `COC(=O)c1ccc(/C(=N/c2ccccc2)N2CCCN(CCc3ccccc3)CC2)cc1`, the Ki [1] was 820 nM and the Ki (Mu-type opioid receptor) was 232 nM.
For `CCN(CC)C(=O)c1ccc(/C(=N/c2ccccc2Cl)N2CCCN(CCc3ccccc3)CC2)cc1`, the Ki [1] was 29.6 nM and the Ki (Mu-type opioid receptor) was 618 nM.
For `C=CCN1C[C@H](C)N(/C(=N\c2ccccc2)c2ccc(C(=O)N(CC)CC)cc2)C[C@H]1C`, the Ki [1] was 170 nM.
`C=CCN1CCN(/C(=N\c2ccccc2)c2ccc(C(=O)N(CC)CC)cc2)CC1` showed a Ki [1] of 859 nM and a Ki (Mu-type opioid receptor) of 1000 nM.
With `CCCN1CCN(/C(=N\c2cccc(Cl)c2)c2ccc(C(=O)N(CC)CC)cc2)CC1` the Ki [1] was 177 nM and the Ki (Mu-type opioid receptor) was 9530 nM.
`CCN(CC)C(=O)c1ccc(/C(=N/c2ccccc2)N2CCN(CCc3cccs3)CC2)cc1` was tested, and the Ki [1] was 764 nM and the Ki (Mu-type opioid receptor) was > 10000 nM.
`CCCN1CCN(/C(=N\c2ccccc2Cl)c2ccc(C(=O)OC)cc2)CC1` gave a Ki [1] of 87.3 nM and a Ki (Mu-type opioid receptor) of 2070 nM.
